Results on one compound are retold here after patent US20230398109A1, “USE OF PQQ AND DERIVATIVE THEREOF” (GUANGZHOU HUTONGYOUWU BIOTECHNOLOGY CO., LTD, priority 2021, published 2023).

Common to all, as to assay type: in vivo, human
For test [1], the system named is patients with secondary dysmenorrhea. Nature of the test: Treatment of patients with secondary dysmenorrhea, oral PQQ vs placebo, 3 months. The conditions noted are these: for Proportion of people with alleviation in secondary dysmenorrhea: 50 people. On the procedure: Experiment number: 100 peoples have been diagnosed with secondary dysmenorrhea, with 50 peoples in the experimental group and the control group each. Experimental method: administering PQQ orally to the patients of experimental group, administering placebo orally to the patients of control group. The duration of the experiment was 3 months, and menstrual pain and pregnancy were asked and recorded. The dysmenorrhea index is determined based on the VAS scoring standard, which means patients self-evaluate the intensity of pain and the degree of psychologically unpleasant experience according to the degree of pain they feel, including: • 0 points: no pain; • 1-3 points: mild pain; • 4-6 points: moderate pain; • 7-9 points: severe pain; • 10 points: unbearable pain.

In test [2] the test system is patients with menstrual abnormalities. The experiment in a line: Treatment of patients with abnormal menstruation, oral PQQ vs placebo, 3 months. The conditions noted are these: experimental group. On the procedure: Experiment number: 100 peoples diagnosed with menstrual abnormalities, 50 people in the experimental group and the control group each. Experimental method: administering PQQ orally to the patients of experimental group, administering placebo orally to the patients of control group. The duration of the experiment was 3 months, and menstrual conditions (duration of menstrual, consumption and weights of sanitary napkin) were measured and recorded.

Test [3] concerns patients with primary dysmenorrhea. The experiment in a line: Treatment of patients with primary dysmenorrhea, oral PQQ vs placebo, 3 months. The conditions noted are these: for Proportion of people with alleviation in primary dysmenorrhea (self-assessment): 50 people. The source says: Experiment number: 100 people have been diagnosed with primary dysmenorrhea, 50 people in the experimental group and the control group. Experimental method: administering PQQ orally to the patients of experimental group, administering placebo orally to the patients of control group. The duration of the experiment was 3 months, and menstrual pain was asked and recorded.

In the case of `O=C(O)c1cc(C(=O)O)c2c(n1)C(=O)C(=O)c1cc(C(=O)O)[nH]c1-2` [PQQ, 4,5-dioxo-1H-pyrrolo[2,3-f]quinoline-2,7,9-tricarboxylic acid], the “average dysmenorrhea index (VAS score) change” value in test [1] (FIG. 1, during treatment) is “decreased significantly”. Besides, the “Proportion of people with alleviation in secondary dysmenorrhea” value in test [1] (evaluation time 1 month) was 82%; in test [1] (evaluation time 3 months) it was 100%. Besides, the “cases that became pregnant” value in test [1] (experimental group of 50, 3 months) is 2 cases. The “dysmenorrhea index alleviated compared to the beginning of the experiment” value in test [1] (experimental group, 3 months) is reported as 100%. The “average monthly menstrual bleeding duration after treatment” value in test [2] (3 months oral, FIG. 2) is recorded as “about 1 week”. In test [2] (3 months oral, FIG. 3 (sanitary napkin consumption)), the “decrease of average amount of menstrual bleeding” value is “more than 30%”. Also, in test [2] (baseline, FIG. 2), the “average monthly menstrual bleeding duration at beginning of the experiment” value is recorded as “about 2 weeks”. For the same compound, the “Proportion of people with alleviation in primary dysmenorrhea (self-assessment)” value in test [3] (evaluation time 1 month) is listed as 98%; in test [3] (evaluation time 3 months), 100%. The “dysmenorrhea index alleviated compared to beginning of the experiment” value in test [3] (experimental group, 3 months) amounted to 100%.
